Assay [1] in a line: Activation of chymotrypsin-like activity of human 20S proteasome using suc-LLVY-AMC as substrate by fluorescence assay.
Assay [2] can be described thus: Inhibition of PA28 activated chymotrypsin-like activity of human 20S proteasome using suc-LLVY-AMC as substrate by fluorescence assay.
Assay [3] in a line: Activation of trypsin-like activity of human 20S proteasome using Bz-VGR-AMC as substrate by fluorescence assay.
The nature of assay [4]: Activation of caspase-like activity of human 20S proteasome using (Z)-LLE-bNA as substrate by fluorescence assay.
The species named for assay [5] is Homo sapiens. Nature of the assay: Activation of chymotrypsin-like activity of human 20S proteasome using suc-LLVY-AMC as substrate at 18 uM by fluorescence assay.
The species named for assay [6] is Homo sapiens. Nature of the assay: Reversal of amyloid beta-induced inhibition of chymotrypsin-like activity of PA28-activated human 20S proteasome using suc-LLVY-AMC as substrate at 14 uM by fluorescence assay. Details: scale not given: the % may be the effect or the level left.
The species named for assay [7] is Homo sapiens. Nature of the assay: Reversal of amyloid beta-induced inhibition of chymotrypsin-like activity of PA28-activated human 20S proteasome using suc-LLVY-AMC as substrate by fluorescence assay.
The species entered for assay [8] is Homo sapiens. Put plainly: Activation of chymotrypsin-like activity of human 20S proteasome using suc-LLVY-AMC as substrate at 18 uM by fluorescence assay in presence of 1.1 to 30 ug/mL.
Assay [9] is filed under the species Homo sapiens. Nature of the assay: Activation of chymotrypsin-like activity of human 20S proteasome using suc-LLVY-AMC as substrate by fluorescence assay relative to control.

As a reminder, the EC50 is the midpoint of the concentration-response curve. By IC50 is commonly meant the midpoint of a concentration-inhibition curve.

SMILES strings stand for the structures. Activity calls are given as the source filed them. The rule behind the calls is not given here.

For `C[C@H](CCC(=O)O)[C@H]1CC[C@H]2[C@@H]3CC[C@@H]4C[C@H](OC(=O)CCCCCC(=O)O)CC[C@]4(C)[C@H]3CC[C@]12C`, the EC50 in [1] (read-out: EC50) is greater than 15 µM. The IC50 result in assay [2] is “Not Active”.

Take `COC(=O)CC[C@@H](C)[C@H]1CC[C@H]2[C@@H]3CC[C@@H]4C[C@@H](N)CC[C@]4(C)[C@H]3CC[C@]12C`: the EC50 result in assay [1] was “Not Active”. Also, in assay [2] (read-out: IC50), the IC50 was found to be 5.7 µM.

Take `C[C@H](CCC(=O)O)[C@H]1CC[C@H]2[C@@H]3CC[C@@H]4C[C@H](O)CC[C@]4(C)[C@H]3CC[C@]12C` [LITHOCHOLIC ACID]: in assay [1], the EC50 result was “Not Active”. Further, the IC50 in assay [2] (read-out: IC50) was greater than 10 µM.

With `COC(=O)CC[C@@H](C)[C@H]1CC[C@H]2[C@@H]3CC[C@@H]4C[C@@H](OC(=O)CCCCCC(=O)O)CC[C@]4(C)[C@H]3CC[C@]12C`, the EC50 entry in assay [1] is recorded as “Not Active”. In addition, the IC50 in assay [2] (read-out: IC50) worked out at 3.1 µM.

In the case of `COC(=O)CC[C@@H](C)[C@H]1CC[C@H]2[C@@H]3CC[C@@H]4C[C@H](OC(=O)CCCCCC(=O)O)CC[C@]4(C)[C@H]3CC[C@]12C`, the values for the EC50 in [1] (read-out: EC50), in [3] and in assay [4] were 7.8 µM, 8.6 µM and 11 µM, respectively. The IC50 entry in [2] is “Not Active”. Besides, the outcome in assay [5] and in assay [8] was Active. Besides, the Activity in assay [6] is 50%; in assay [7] it was “Dose-dependent effect”.

In the case of `COC(=O)CC[C@@H](C)[C@H]1CC[C@H]2[C@@H]3CC[C@@H]4C[C@H](NC(=O)CCCCCC(=O)O)CC[C@]4(C)[C@H]3CC[C@]12C`, in assay [1] (read-out: EC50), the 50% effective concentration (EC50) came out at 4.3 µM. Further, the IC50 entry in assay [2] is given as “Not Active”. The fold change (FC) in assay [9] turned out to be 2.

On to `COC(=O)CC[C@@H](C)[C@H]1CC[C@H]2[C@@H]3CC[C@@H]4C[C@H](N)CC[C@]4(C)[C@H]3CC[C@]12C`, for which, in [1] (read-out: EC50), the EC50 turned out to be 6.7 µM. Moreover, the IC50 result in [2] is recorded as “Not Active”.

With `CNC(=O)CC[C@@H](C)[C@H]1CC[C@H]2[C@@H]3CC[C@@H]4C[C@H](OC(=O)CCCCCC(=O)O)CC[C@]4(C)[C@H]3CC[C@]12C`, the EC50 result in assay [1] was “Not Active”. Besides, the IC50 result in assay [2] is “Not Active”.

For the compound `COC(=O)CC[C@@H](C)[C@H]1CC[C@H]2[C@@H]3CC[C@@H]4C[C@@H](NC(=O)CCCCCC(=O)O)CC[C@]4(C)[C@H]3CC[C@]12C`, the EC50 entry in [1] is listed as “Not Active”. For the same compound, the IC50 in [2] (read-out: IC50) turned out to be 2.6 µM.

With `CCOC(=O)CC[C@@H](C)[C@H]1CC[C@H]2[C@@H]3CC[C@@H]4C[C@H](OC(=O)CCCCCC(=O)O)CC[C@]4(C)[C@H]3CC[C@]12C`, the EC50 in assay [1] (read-out: EC50) was greater than 15 µM. In [2], the IC50 entry is recorded as “Not Active”.

Consider `C/C=C1/[C@H](O[C@@H]2O[C@H](CO)[C@@H](O)[C@H](O)[C@H]2O)OC=C(C(=O)OC)[C@H]1CC(=O)OCCc1ccc(O)c(O)c1` [OLEUROPEIN], for which the 50% effective concentration (EC50) entry in assay [1] was “Not Active”. In addition, the IC50 result in assay [2] is “Not Active”.

The record behind these values is ChEMBL document CHEMBL2157990 (ACS Med Chem Lett, 2012).
